Data reported in US6825230B2, “Spiro and dispiro 1,2,4-trixolane antimalarials” (Medicines for Malaria Venture MMV, priority 2002, dated 2004).
In brackets after ≈: the same amount, converted by molar mass. Like-named read-outs stand apart in the source and are kept apart here.

Assays:
[1] = tested on: chloroquine-resistant K1 strain of P. falciparum; assay: In vitro antimalarial semiautomated microdilution assay ([3H]-hypoxanthine incorporation), K1 strain; type: cell-based, Plasmodium falciparum; settings: Plasmodium falciparum
Method in brief: (§1)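 IC50 comes from Logit regression of [3H]-hypoxanthine incorporation data. Intraerythrocytic P. falciparum taken from asynchronous stock cultures is exposed to OZ compounds in a semiautomated microdilution format.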

[2] = tested on: chloroquine-sensitive NF54 strain of P. falciparum; assay: In vitro antimalarial semiautomated microdilution assay ([3H]-hypoxanthine incorporation), NF54 strain; type: cell-based, Plasmodium falciparum; settings: Plasmodium falciparum
Method in brief: as §1

[3] = tested on: ANKA strain of P. berghei; assay: Single dose STI in vivo screen in infected mice; set-up: species or system Plasmodium berghei; settings: for Survival (days) 10 mg/kg po: single 10 mg/kg po in 3% ethanol and 7% Tween 80; for Survival (days) 10 mg/kg po / Survival (days) 10 mg/kg SSV po / Survival (days) 10 mg/kg sc: untreated 6-7 days; for Activity (%) 10 mg/kg po: single 10 mg/kg po in 3% ethanol and 7% Tween 80 on day 1 post-infection; for Activity (%) 10 mg/kg po / Activity (%) 10 mg/kg SSV po / Activity (%) 10 mg/kg sc: percent reduction in parasitemia on day 3; for Survival (days) 10 mg/kg SSV po: single 10 mg/kg po in SSV; for Activity (%) 10 mg/kg SSV po: single 10 mg/kg po in standard suspending vehicle (SSV) on day 1 post-infection; for Survival (days) 10 mg/kg sc: single 10 mg/kg sc in 3% ethanol and 7% Tween 80; for Activity (%) 10 mg/kg sc: single 10 mg/kg sc in 3% ethanol and 7% Tween 80 on day 1 post-infection
[4] = chloroquine-resistant K1 strain, 72 h incubation, read-out: IC50 (ng/ml) K1
[5] = chloroquine-sensitive NF54 strain, 72 h incubation, read-out: IC50 (ng/ml) NF54
[6] = K1, 72 h, read-out: IC50 (ng/ml) K1, chloroquine-resistant K1 strain, 72 h incubation
[7] = NF54, 72 h, read-out: IC50 (ng/ml) NF54, chloroquine-sensitive NF54 strain, 72 h incubation

Row | Structure (SMILES) | IC50 [1, 4] [ng/mL] | IC50 [2, 5] [ng/mL] | Survival (days) 10 mg/kg po [3] [days] | Activity (%) 10 mg/kg po [3] | Survival (days) 10 mg/kg SSV po [3] [days] | Activity (%) 10 mg/kg SSV po [3] | Survival (days) 10 mg/kg sc [3] [days] | Activity (%) 10 mg/kg sc [3] | IC50 [1, 6] [ng/mL] | IC50 [2, 7] [ng/mL]
1 | c1cc(CN2CCC3(CC2)OOC2(O3)C3CC4CC(C3)CC2C4)ccn1 (centres unmarked) [OZ216, Adamantane-2-spiro-3′-8′-(4′-pyridinylmethyl)-1′,2′,4′-trioxa-8′-azaspiro[4.5]decane] | 0.4 (≈ 1.12 nM) | 0.67 (≈ 1.88 nM) | 6.3 | 62% | 7.7 | 69% | 11.0 | 99.02% |  | 
2 | O=C(C[C@H]1CC[C@]2(CC1)OOC1(O2)C2CC3CC(C2)CC1C3)Nc1nccs1 (some centres unmarked) [OZ217] | 2 (≈ 4.94 nM) | 2 (≈ 4.94 nM) | 7.0 | 67% | 6.0 | 8% | 8.0 | 98% |  | 
3 | O=C(C[C@H]1CC[C@]2(CC1)OOC1(O2)C2CC3CC(C2)CC1C3)N1CCCCC1 (some centres unmarked) [OZ218] | 2 (≈ 5.13 nM) | 3 (≈ 7.7 nM) | 10.0 | 98% | 14.3 | 99.30% | 9.0 | 99.68% |  | 
4 | c1ccc(CN2CCC3(CC2)OOC2(O3)C3CC4CC(C3)CC2C4)cc1 (centres unmarked) [OZ220, Adamantane-2-spiro-3′-8′-benzyl-1′,2′,4′-trioxa-8′-azaspiro[4.5]decane] | 6.9 (≈ 19.4 nM) | 4.9 (≈ 13.8 nM) | 6.0 | 40% | 5.3 | 0% | 10.0 | 99.95% |  | 
5 | NC(=O)N[C@H]1CC[C@]2(CC1)OOC1(O2)C2CC3CC(C2)CC1C3 (some centres unmarked) [OZ221] | > 10 | > 10 | 6.3 | 80% | 7.0 | 87% | 8.0 | 97% |  | 
6 | CC(C)(C)NC(=O)N[C@H]1CC[C@]2(CC1)OOC1(O2)C2CC3CC(C2)CC1C3 (some centres unmarked) [OZ222] | 3.9 (≈ 10.3 nM) | 6.3 (≈ 16.6 nM) | 7.7 | 87% | 7.0 | 75% | 10.0 | 99.76% |  | 
7 | COC(=O)c1cncn1C[C@H]1CC[C@]2(CC1)OOC1(O2)C2CC3CC(C2)CC1C3 (some centres unmarked) [OZ223] | 4 (≈ 9.94 nM) | > 10 | 7.3 | 89% | 6.3 | 79% | 12.0 | 99.57% |  | 
8 | COC(=O)c1cn(C[C@H]2CC[C@]3(CC2)OOC2(O3)C3CC4CC(C3)CC2C4)cn1 (some centres unmarked) [OZ224] | 2 (≈ 4.97 nM) | 3 (≈ 7.45 nM) | 6.0 | 0% | 5.7 | 5% | 5.7 | 20% |  | 
9 | O=C(O)c1cn(C[C@H]2CC[C@]3(CC2)OOC2(O3)C3CC4CC(C3)CC2C4)cn1 (some centres unmarked) [OZ225] | 7.3 (≈ 18.8 nM) | > 10 | 5.7 | 0% | 5.7 | 0% | 6.3 | 17% |  | 
10 | [N-]=[N+]=NCC[C@H]1CC[C@]2(CC1)OOC1(O2)C2CC3CC(C2)CC1C3 (some centres unmarked) [OZ228] |  |  | 10.3 | 99.94% | 6.0 | 28% | 14.0 | 99.94% | 2 (≈ 6 nM) | 2.1 (≈ 6.3 nM)
11 | O=C(NC[C@H]1CC[C@]2(CC1)OOC1(O2)C2CC3CC(C2)CC1C3)c1ccccc1C(=O)NC[C@H]1CC[C@]2(CC1)OOC1(O2)C2CC3CC(C2)CC1C3 (stereo partly drawn) [OZ230, N,N′-Bis[cis-[adamantane-2-spiro-3′-1′,2′,4′-trioxaspiro[4.5]dec-8′-yl]methyl]-1,2-benzenedicarboxamide] |  |  | 5.3 | 0/0/0% | 5.7 | 0/0/0% | 5.7 | 0/0/0% | 3.9 (≈ 5.44 nM) | 3.6 (≈ 5.02 nM)
12 | O=C(O)c1cncn1C[C@H]1CC[C@]2(CC1)OOC1(O2)C2CC3CC(C2)CC1C3 (stereo partly drawn) [OZ231, cis-Adamantane-2-spiro-3′-8′-(5′-carboxy-1′H-imidazol-1′-ylmethyl)-1′,2′,4′-30 trioxaspiro[4.5]decane] |  |  | 5.3 | 0/0/0% | 5.7 | 0/0/0% | 6.0 | 0/0/0% | > 10 | > 10
13 | CN(C)C[C@H]1CC[C@]2(CC1)OOC1(O2)C2CC3CC(C2)CC1C3 (some centres unmarked) [OZ232] |  |  | 8.0 | 76% | 7.3 | 74% | 8.7 | 99.94% | 0.3 (≈ 0.933 nM) | 0.5 (≈ 1.56 nM)
14 | COC(=O)c1ncnn1C[C@H]1CC[C@]2(CC1)OOC1(O2)C2CC3CC(C2)CC1C3 (some centres unmarked) [OZ233] |  |  | 7.0 | 69% | 7.7 | 76% | 8.3 | 99.66% | 1.7 (≈ 4.21 nM) | 1.9 (≈ 4.71 nM)
15 | COC(=O)c1ncn(C[C@H]2CC[C@]3(CC2)OOC2(O3)C3CC4CC(C3)CC2C4)n1 (some centres unmarked) [OZ234] |  |  | 6.0 | 12% | 6.0 | 0% | 6.3 | 0% | 3 (≈ 7.44 nM) | 3.6 (≈ 8.92 nM)
16 | NC(=O)CN(CC(N)=O)C[C@H]1CC[C@]2(CC1)OOC1(O2)C2CC3CC(C2)CC1C3 (some centres unmarked) [OZ236] |  |  | 6.3 | 89% | 7.7 | 86% | 7.7 | 98.61% | 2 (≈ 4.91 nM) | 2 (≈ 4.91 nM)
17 | N=C(N)NC[C@H]1CC[C@]2(CC1)OOC1(O2)C2CC3CC(C2)CC1C3 (some centres unmarked) [OZ237] |  |  | 6.0 | 5% | 6.0 | 9% | 6.7 | 52% | 5.7 (≈ 17 nM) | 7.1 (≈ 21.2 nM)
18 | NC(=O)C[C@H]1CC[C@]2(CC1)OOC1(O2)C2CC3CC(C2)CC1C3 (some centres unmarked) [OZ243] |  |  | 7.3 | 87% | 8.7 | 97% | 6.3 | 70% | 0.91 (≈ 2.83 nM) | 1.1 (≈ 3.42 nM)
19 | O=C(C[C@H]1CC[C@]2(CC1)OOC1(O2)C2CC3CC(C2)CC1C3)N1CCN(c2ccccc2)CC1 (some centres unmarked) [OZ244] | 4 (≈ 8.57 nM) | 4.2 (≈ 9 nM) | 5.7 | 6% | 5.3 | 0% | 6.3 | 18% |  | 
20 | OC1(c2nccs2)CCC2(CC1)OOC1(O2)C2CC3CC(C2)CC1C3 (centres unmarked) [OZ247] | 1.8 (≈ 4.95 nM) | 2.3 (≈ 6.33 nM) | 6.3 | 57% | 6.0 | 27% | 9.0 | 99.85% |  | 
21 | c1c[nH]c([C@H]2CC[C@]3(CC2)OOC2(O3)C3CC4CC(C3)CC2C4)n1 (some centres unmarked) [OZ251] | 0.6 (≈ 1.82 nM) | 0.35 (≈ 1.06 nM) | 6.7 | 29% | 6.0 | 6% | 9.0 | 99.87% |  | 
22 | c1csc(NC[C@H]2CC[C@]3(CC2)OOC2(O3)C3CC4CC(C3)CC2C4)n1 (some centres unmarked) [OZ252] | 2.3 (≈ 6.11 nM) | 2.2 (≈ 5.84 nM) | 8.3 | 98.91% | 9.0 | 99.49% | 9.3 | 99.82% |  | 
